Reference: patent US10078087B2, “Assays and enhancers of the human delta ENaC sodium channel” (SENOMYX, INC., priority 2001, dated 2018)

Assays:
[1] = target: T1, αβγ hENaC (Homo sapiens, UniProt P37088+P51168+P51170); experiment: two-electrode voltage clamp of oocytes expressing alpha beta gamma hENaC; type: cell-based
T1 construct: expressed in transfected cells; host or cells: Xenopus laevis oocytes injected with cRNA of each subunit
T1 sequence (P37088 1-669): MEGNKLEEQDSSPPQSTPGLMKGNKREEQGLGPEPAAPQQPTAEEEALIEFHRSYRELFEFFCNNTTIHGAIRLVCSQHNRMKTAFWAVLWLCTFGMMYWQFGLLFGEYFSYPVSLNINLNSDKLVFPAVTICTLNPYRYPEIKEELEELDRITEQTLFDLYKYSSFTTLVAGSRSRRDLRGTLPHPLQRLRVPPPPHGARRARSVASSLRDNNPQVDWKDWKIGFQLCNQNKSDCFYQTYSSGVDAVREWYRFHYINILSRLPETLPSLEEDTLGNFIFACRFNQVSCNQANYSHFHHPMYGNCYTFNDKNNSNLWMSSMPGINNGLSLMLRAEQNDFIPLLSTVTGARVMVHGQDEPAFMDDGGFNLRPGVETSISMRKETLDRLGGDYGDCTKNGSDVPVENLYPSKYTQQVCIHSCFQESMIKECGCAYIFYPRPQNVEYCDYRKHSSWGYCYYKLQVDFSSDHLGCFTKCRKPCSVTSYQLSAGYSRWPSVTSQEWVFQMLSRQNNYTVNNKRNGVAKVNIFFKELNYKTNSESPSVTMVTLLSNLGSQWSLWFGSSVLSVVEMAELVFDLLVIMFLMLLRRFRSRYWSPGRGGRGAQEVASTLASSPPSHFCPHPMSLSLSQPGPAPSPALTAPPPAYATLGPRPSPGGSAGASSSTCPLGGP
T1 sequence (P51168 1-640): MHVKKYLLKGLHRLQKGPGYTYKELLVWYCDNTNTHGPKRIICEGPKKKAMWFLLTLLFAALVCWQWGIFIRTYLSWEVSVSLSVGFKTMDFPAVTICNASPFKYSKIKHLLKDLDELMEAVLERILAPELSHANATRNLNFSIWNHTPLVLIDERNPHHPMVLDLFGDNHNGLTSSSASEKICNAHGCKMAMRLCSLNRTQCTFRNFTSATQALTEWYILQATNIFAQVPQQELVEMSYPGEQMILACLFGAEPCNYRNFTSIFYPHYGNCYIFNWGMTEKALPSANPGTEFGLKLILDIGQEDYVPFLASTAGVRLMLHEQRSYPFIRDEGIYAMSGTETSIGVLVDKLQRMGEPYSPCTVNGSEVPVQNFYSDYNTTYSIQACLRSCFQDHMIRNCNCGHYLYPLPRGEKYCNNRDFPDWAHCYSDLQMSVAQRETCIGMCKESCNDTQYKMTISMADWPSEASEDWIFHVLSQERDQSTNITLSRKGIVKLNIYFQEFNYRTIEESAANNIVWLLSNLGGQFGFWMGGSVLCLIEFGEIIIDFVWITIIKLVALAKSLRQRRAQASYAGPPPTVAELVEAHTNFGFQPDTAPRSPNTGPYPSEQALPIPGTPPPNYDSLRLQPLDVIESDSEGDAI
T1 sequence (P51170 1-649): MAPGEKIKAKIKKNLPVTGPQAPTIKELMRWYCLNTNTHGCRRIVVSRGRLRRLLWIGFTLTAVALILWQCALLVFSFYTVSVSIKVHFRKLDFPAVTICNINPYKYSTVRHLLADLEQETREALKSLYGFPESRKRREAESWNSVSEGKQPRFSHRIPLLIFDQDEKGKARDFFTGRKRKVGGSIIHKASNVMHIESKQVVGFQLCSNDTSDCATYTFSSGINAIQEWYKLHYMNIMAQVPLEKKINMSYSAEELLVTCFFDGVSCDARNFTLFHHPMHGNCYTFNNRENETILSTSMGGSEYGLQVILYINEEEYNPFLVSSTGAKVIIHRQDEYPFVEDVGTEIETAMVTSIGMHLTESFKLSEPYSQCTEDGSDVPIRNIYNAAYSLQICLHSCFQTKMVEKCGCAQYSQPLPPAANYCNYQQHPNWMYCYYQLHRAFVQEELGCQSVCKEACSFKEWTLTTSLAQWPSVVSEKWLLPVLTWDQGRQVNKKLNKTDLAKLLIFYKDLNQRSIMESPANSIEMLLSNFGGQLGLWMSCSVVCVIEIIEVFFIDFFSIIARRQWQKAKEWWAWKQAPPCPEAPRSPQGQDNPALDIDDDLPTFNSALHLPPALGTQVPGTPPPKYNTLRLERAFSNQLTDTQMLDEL
Source text: α, β, and γ hENaC were cloned from kidney cDNA (Origene, Rockville, Md.) into pcDNA3 (Invitrogen, Carlsbad, Calif.) as described previously (Kellenberger, S and Schild, L. Physiol. Rev. 82:735-767(2002). δ hENaC was cloned from testis cDNA (BD Biosciences Clontech, Palo Alto, Calif.). α hENaC sequence was identical to published sequences from lung and kidney (Rossier et al., Annu. Rev. Physiol. 64:877-897 (2002); Alvarez de la Rosa et al., Annu. Rev. Physiol. 62:573-594 (200). (Genbank accession numbers X76180 and L29007). β hENaC sequence was identical to published sequence from lung Bigiani et al. Bigiani et al., Prog. […] (Genbank accession number X87159) with the exception of a glycine (nucleotide triplet GGC) to alanine (nucleotide triplet GCC) substitution in our clone at amino acid 314. […]
ENaC cRNA was generated from linearized plasmids using the mMESSAGE mMACHINE kit with T7 RNA polymerase according to the manufacturer's instructions (Ambion, Austin, Tex.). cRNA quality was checked by denaturing agarose gel electrophoresis and spectrophometric absorbance readings at 260 and 280 nm to ensure that full-length, non-degraded cRNA was generated. […]

[2] = target: T2, δβγ hENaC (Homo sapiens, UniProt P51168+P51170+P51172); experiment: two-electrode voltage clamp of oocytes expressing delta beta gamma hENaC; type: cell-based
T2 construct: expressed in transfected cells; host or cells: Xenopus laevis oocytes injected with cRNA of each subunit
T2 sequence (P51172 1-638 isoform P51172-1): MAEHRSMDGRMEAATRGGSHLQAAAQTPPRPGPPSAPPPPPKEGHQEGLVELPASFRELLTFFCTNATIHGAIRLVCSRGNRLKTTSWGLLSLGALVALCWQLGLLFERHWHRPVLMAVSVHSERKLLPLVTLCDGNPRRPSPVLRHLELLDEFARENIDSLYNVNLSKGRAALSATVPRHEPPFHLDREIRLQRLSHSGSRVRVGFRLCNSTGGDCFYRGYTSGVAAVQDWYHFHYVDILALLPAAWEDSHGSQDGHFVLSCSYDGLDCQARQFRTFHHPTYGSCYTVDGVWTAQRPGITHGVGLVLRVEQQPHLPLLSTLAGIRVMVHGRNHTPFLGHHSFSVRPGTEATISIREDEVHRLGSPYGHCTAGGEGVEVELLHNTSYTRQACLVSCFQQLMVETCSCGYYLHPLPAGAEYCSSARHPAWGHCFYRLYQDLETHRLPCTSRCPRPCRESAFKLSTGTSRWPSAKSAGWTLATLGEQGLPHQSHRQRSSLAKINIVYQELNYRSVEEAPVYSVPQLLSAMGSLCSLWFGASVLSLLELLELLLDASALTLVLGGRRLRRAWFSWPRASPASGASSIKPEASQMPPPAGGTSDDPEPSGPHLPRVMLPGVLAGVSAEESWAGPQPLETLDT
T2 sequence (P51168 1-640): T1 sequence (P51168 1-640)
T2 sequence (P51170 1-649): T1 sequence (P51170 1-649)
Source text: α, β, and γ hENaC were cloned from kidney cDNA (Origene, Rockville, Md.) into pcDNA3 (Invitrogen, Carlsbad, Calif.) as described previously (Kellenberger, S and Schild, L. Physiol. Rev. 82:735-767(2002). δ hENaC was cloned from testis cDNA (BD Biosciences Clontech, Palo Alto, Calif.). α hENaC sequence was identical to published sequences from lung and kidney (Rossier et al., Annu. Rev. Physiol. 64:877-897 (2002); Alvarez de la Rosa et al., Annu. Rev. Physiol. 62:573-594 (200). (Genbank accession numbers X76180 and L29007). β hENaC sequence was identical to published sequence from lung Bigiani et al. Bigiani et al., Prog. Biophys. Mol. Biol. 83:193-225 (2003). (Genbank accession number X87159) with the exception of a glycine (nucleotide triplet GGC) to alanine (nucleotide triplet GCC) substitution in our clone at amino acid 314. […] (GenBank accession number BC059391). δ hENaC sequence was identical to published sequence from kidney (Shimkets et al., Cell 79: 407414 (1994)) with the exception of a tyrosine (nucleotide triplet TAC) to cysteine (nucleotide triplet TGC) substitution in our clone at amino acid 532.
ENaC cRNA was generated from linearized plasmids using the mMESSAGE mMACHINE kit with T7 RNA polymerase according to the manufacturer's instructions (Ambion, Austin, Tex.). cRNA quality was checked by denaturing agarose gel electrophoresis and spectrophometric absorbance readings at 260 and 280 nm to ensure that full-length, non-degraded cRNA was generated.
Female Xenopus laevis South African clawed frogs greater than or equal to 9 cm in length were obtained from NASCO (Fort Atkinson, Wis.). Frogs were anesthetized in 0.15% ethyl-3-aminobenzoate methanesulfonate (Sigma, St. Louis, Mo.) in distilled water and placed on ice. […]
Unless noted otherwise, ENaC function was measured using the two-electrode voltage clamp technique on an OpusXpress 6000A parallel oocyte voltage clamp system twenty-four hours post-microinjection (Axon Instruments, Union City, Calif.). […]

[3] = tested on: human salty taste perception; experiment: effect of amiloride on human salty taste perception; type: in vivo; settings: humans; levels ~300-fold above IC50 for αβγ ENaC (~10-fold over IC50 for δβγ ENaC) in oocytes
[4] = tested on: human salty taste perception; settings: humans; concentrations that specifically modulate ENaC function; cited from earlier work
[5] = compound concentration not given, N = 5-7 oocytes

Compound	% Enhance αβγ [1, 5]	% Enhance δβγ [2, 5]	inhibition at 1 µM [1]	inhibition at 10 µM [2]	IC50 ([2]; Xenopus oocytes, n=10, mean±SEM)	effect on perceived salt intensity [3]	reduction of intensity of sodium chloride taste [4]
Choline C1	53 +/− 17%	52 +/− 5%	–	–	–	–	–
N=C(N)NC(=O)c1nc(Cl)c(N)nc1N [amiloride]	–	–	> 90%	> 90%	2700 ± 300 nM	did not elicit a significant effect	15-20%
